Test results: ChEMBL document CHEMBL4052725, “Synthesis and biological evaluation of novel steroidal 5α,8α-epidioxyandrost-6-ene-3β-ol-17-(O-phenylacetamide)oxime derivatives as potential anticancer agents” (Bioorg Med Chem Lett, 2017); call rule not given here

Legend:
MDA-MB-231 = test: Antiproliferative activity against human MDA-MB-231 cells after 48 hrs by MTT assay; assay type: functional, cell-based; details: MDA-MB-231, 48 h
SK-HEP1 = test: Antiproliferative activity against human SKHEP1 cells after 48 hrs by MTT assay; assay type: functional, cell-based; details: SK-HEP1, 48 h
HepG2 = test: Antiproliferative activity against human HepG2 cells after 48 hrs by MTT assay; assay type: functional, cell-based; details: HepG2, 48 h
MCF7 = test: Antiproliferative activity against human MCF7 cells after 48 hrs by MTT assay; assay type: functional, cell-based; details: MCF7, 48 h
[1] = Drug localization in human HepG2 cells at 10 uM after 2 hrs by confocal laser scanning microscopic analysis; assay type: ADME, cell-based; details: hepg2, 2 h
[2] = Drug localization in mitochondria of human HepG2 cells at 10 uM after 30 mins by Rh123 green dye-based confocal laser scanning microscopic analysis; assay type: ADME; details: 0.5 h

Compound | IC50 (MDA-MB-231) [µM] | IC50 (SK-HEP1) [µM] | IC50 (HepG2) [µM] | IC50 (MCF7) [µM] | Drug uptake [1] | Drug uptake [2]
CC(C)[C@@H](C)/C=C/[C@@H](C)[C@H]1CC[C@@H]2[C@]1(C)CC[C@@H]1[C@]23C=C[C@]2(C[C@@H](O)CC[C@]12C)OO3 | 19.2 | 17.2 | 15.8 | 23.3 | – | –
C[C@]12CC[C@@H]3[C@]4(C=C[C@]5(C[C@@H](O)CC[C@]35C)OO4)[C@@H]1CC/C2=N\OCC(=O)Nc1ccc(Cl)cc1 | 14.2 | 11.1 | 14.8 | 19.5 | – | –
C[C@]12CC[C@@H]3[C@]4(C=C[C@]5(C[C@@H](O)CC[C@]35C)OO4)[C@@H]1CC/C2=N\OCC(=O)Nc1cccc(Cl)c1 | 29.5 | 22.8 | 15.4 | 34.4 | – | –
C#Cc1cccc(NC(=O)CO/N=C2\CC[C@H]3[C@@]45C=C[C@]6(C[C@@H](O)CC[C@]6(C)[C@@H]4CC[C@]23C)OO5)c1 | 25.1 | 38.2 | 44.2 | 31.6 | – | –
COc1cccc(NC(=O)CO/N=C2\CC[C@H]3C4=CC=C5C[C@@H](O)CC[C@]5(C)[C@H]4CC[C@]23C)c1 | 59.3 | > 80 | 70.6 | > 80 | – | –
C[C@]12CC[C@@H]3[C@]4(C=C[C@]5(C[C@@H](O)CC[C@]35C)OO4)[C@@H]1CC/C2=N\OCC(=O)Nc1cccc(C(F)(F)F)c1 | 20.4 | 15.6 | 13.5 | 23.1 | – | –
C[C@]12CC[C@@H]3[C@]4(C=C[C@]5(C[C@@H](O)CC[C@]35C)OO4)[C@@H]1CC/C2=N\OCC(=O)Nc1ccc(Br)cc1 | 37.5 | 24.4 | 29.9 | 40.3 | – | –
CC(C)c1ccc(NC(=O)CO/N=C2\CC[C@H]3C4=CC=C5C[C@@H](O)CC[C@]5(C)[C@H]4CC[C@]23C)cc1 | 35 | 23.2 | 26.7 | 31.6 | – | –
COc1ccc(NC(=O)CO/N=C2\CC[C@H]3[C@@]45C=C[C@]6(C[C@@H](O)CC[C@]6(C)[C@@H]4CC[C@]23C)OO5)cc1 | 46.4 | 41.4 | 49.5 | 52.2 | – | –
C[C@]12CC[C@H](O)CC1=CC=C1[C@@H]2CC[C@]2(C)/C(=N/OCC(=O)Nc3cccc(Cl)c3)CC[C@@H]12 | 33.5 | 26.6 | 22.7 | 42.1 | – | –
CC(C)c1ccc(NC(=O)CO/N=C2\CC[C@H]3[C@@]45C=C[C@]6(C[C@@H](O)CC[C@]6(C)[C@@H]4CC[C@]23C)OO5)cc1 | 15.8 | 14.6 | 12.1 | 20.4 | – | –
C[C@]12CC[C@@H]3[C@]4(C=C[C@]5(C[C@@H](O)CC[C@]35C)OO4)[C@@H]1CC/C2=N\OCC(=O)Nc1ccc(F)cc1 | 12.7 | 10.7 | 15.8 | 14.5 | – | –
Cc1ccc(NC(=O)CO/N=C2\CC[C@H]3[C@@]45C=C[C@]6(C[C@@H](O)CC[C@]6(C)[C@@H]4CC[C@]23C)OO5)cc1Cl | 17.5 | 12.1 | 9.3 | 22.7 | – | –
COc1cccc(NC(=O)CO/N=C2\CC[C@H]3[C@@]45C=C[C@]6(C[C@@H](O)CC[C@]6(C)[C@@H]4CC[C@]23C)OO5)c1 | 57.3 | 50.2 | 44.9 | 43.2 | – | –
C[C@]12CC[C@@H]3[C@]4(C=C[C@]5(C[C@@H](O)CC[C@]35C)OO4)[C@@H]1CC/C2=N\OCC(=O)Nc1cccc(F)c1 | 26.3 | 37.6 | 40.5 | 29.5 | – | –
CCN(CC)c1ccc2cc(C(=O)NCC(=O)OC3CC[C@]4(C)[C@@H]5CC[C@]6(C)/C(=N/OCC(=O)Nc7ccc(C(C)C)cc7)CC[C@H]6[C@@]56C=C[C@]4(C3)OO6)c(=O)oc2c1 (some centres undefined) | 7.22 | 7.52 | 8.4 | 9.64 | Active | Active
C[C@]12CC[C@@H]3[C@]4(C=C[C@]5(C[C@@H](O)CC[C@]35C)OO4)[C@@H]1CC/C2=N\OCC(=O)Nc1ccccc1 | 74.2 | 60.4 | 48.3 | > 80 | – | –
Cc1cccc(NC(=O)CO/N=C2\CC[C@H]3[C@@]45C=C[C@]6(C[C@@H](O)CC[C@]6(C)[C@@H]4CC[C@]23C)OO5)c1 | 45.5 | 30.6 | 35.4 | 41.6 | – | –
C[C@]12CC[C@@H]3[C@]4(C=C[C@]5(C[C@@H](O)CC[C@]35C)OO4)[C@@H]1CC/C2=N\OCC(=O)Nc1ccc(F)c(Cl)c1 | 24.6 | 14.3 | 11.3 | 26.2 | – | –
C[C@]12CC[C@H](O)CC1=CC=C1[C@@H]2CC[C@]2(C)/C(=N/OCC(=O)Nc3ccccc3)CC[C@@H]12 | > 80 | 73.8 | > 80 | > 80 | – | –
C[C@]12CC[C@H](O)CC1=CC=C1[C@@H]2CC[C@]2(C)/C(=N/OCC(=O)Nc3cccc(C(F)(F)F)c3)CC[C@@H]12 | 19.4 | 16.5 | 14.4 | 21.3 | – | –
Cc1ccc(NC(=O)CO/N=C2\CC[C@H]3C4=CC=C5C[C@@H](O)CC[C@]5(C)[C@H]4CC[C@]23C)cc1Cl | 29.2 | 19.8 | 17.8 | 34.3 | – | –
Cc1ccc(NC(=O)CO/N=C2\CC[C@H]3[C@@]45C=C[C@]6(C[C@@H](O)CC[C@]6(C)[C@@H]4CC[C@]23C)OO5)cc1 | > 80 | 46.3 | 38.3 | 62.2 | – | –
